Measured values: patent US8809372B2, “Pyridine derivatives” (Endo Pharmaceuticals, Inc., priority 2011, dated 2014)

Assays:
[1] = target: T1, rat CYP17 (rat testicular microsomes) (Rattus norvegicus, UniProt P11715); test: CYP17 inhibition assay in rat testicular microsomes; assay type: biochemical
T1 construct: Rat testis tissue was collected and disrupted with 30 strokes of a glass homogenizer; from tissue; host or cells: rat testis (microsomes)
T1 sequence (P11715 1-507): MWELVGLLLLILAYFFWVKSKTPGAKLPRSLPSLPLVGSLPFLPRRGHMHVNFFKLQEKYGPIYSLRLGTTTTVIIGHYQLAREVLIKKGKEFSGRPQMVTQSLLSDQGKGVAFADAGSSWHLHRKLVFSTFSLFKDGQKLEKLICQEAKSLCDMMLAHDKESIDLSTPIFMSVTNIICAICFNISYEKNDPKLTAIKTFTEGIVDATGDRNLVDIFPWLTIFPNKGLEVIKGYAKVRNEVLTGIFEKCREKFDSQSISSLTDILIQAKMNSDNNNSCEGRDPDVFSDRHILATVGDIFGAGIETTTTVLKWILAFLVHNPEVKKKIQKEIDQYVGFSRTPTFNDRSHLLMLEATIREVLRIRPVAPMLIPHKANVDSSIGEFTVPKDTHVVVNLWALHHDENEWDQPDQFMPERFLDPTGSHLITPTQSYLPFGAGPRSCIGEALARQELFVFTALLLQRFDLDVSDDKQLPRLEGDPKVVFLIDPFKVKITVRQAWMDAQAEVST
Procedure, shortened: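 Rat testicular microsomes (150–160 μg) or yeast microsomes expressing human CYP17 (1.7 pmol) react with ³H-17α-hydroxypregnenolone (1 μCi/reaction) and 325 μM NADPH in potassium phosphate buffer, pH 7.4. Compound is pre-incubated with substrate for 15 min, then the reaction runs 60 min at 37 °C. After chloroform extraction and charcoal treatment, aqueous radioactivity is measured by scintillation counting.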

human CYP17 = target: T2, human CYP17 (Homo sapiens, UniProt P05093); test: CYP17 inhibition assay in yeast microsomes overexpressing human CYP17; assay type: biochemical; settings: yeast microsomes expressing human CYP17
T2 construct: purchased Premas Biotech, India; host or cells: yeast (microsomes)
T2 sequence (P05093 1-508): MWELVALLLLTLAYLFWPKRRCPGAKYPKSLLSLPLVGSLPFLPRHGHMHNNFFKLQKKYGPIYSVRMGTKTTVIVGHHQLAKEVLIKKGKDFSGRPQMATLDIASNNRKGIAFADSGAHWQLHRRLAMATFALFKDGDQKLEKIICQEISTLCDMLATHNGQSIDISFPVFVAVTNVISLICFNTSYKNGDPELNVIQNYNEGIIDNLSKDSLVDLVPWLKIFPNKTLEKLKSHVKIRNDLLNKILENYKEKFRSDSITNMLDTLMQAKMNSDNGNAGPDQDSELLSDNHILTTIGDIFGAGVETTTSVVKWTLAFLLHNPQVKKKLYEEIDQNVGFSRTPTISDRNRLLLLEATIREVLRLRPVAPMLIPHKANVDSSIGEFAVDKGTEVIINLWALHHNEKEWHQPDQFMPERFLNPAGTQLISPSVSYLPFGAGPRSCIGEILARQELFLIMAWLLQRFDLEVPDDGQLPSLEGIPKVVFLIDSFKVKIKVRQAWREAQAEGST
Method: CYP17 Inhibition Assay in Rat Testicular Microsomes (Rat CYP17) or Yeast Microsome Overexpressing Human CYP17
1. NADPH (Sigma): A working stock was prepared by adding 25 μL of 6.5 mM NADPH in each tube. The final concentration of NADPH used in the assay was 325 μM.
2. Potassium Phosphate Buffer: One molar (1M) solutions of K2HPO4 and KH2PO4 were prepared. Eight mL of the 1 M KH2PO4 and 1.98 mL of the 1 M K2HPO4 were combined and the pH was adjusted to 7.4.
3. ^3H3-17α-hydroxypregnenolone (American Radiolabeled Chemicals, Inc., stock 1 μCi/μL): A 1:1 dilution of ^3H3-17α-hydroxypregnenolone in ethanol was prepared by combining 100 μL ^3H3-17α-hydroxypregnenolone+100 μL ethanol for one complete 96 well plate. For the reaction, 2 μL of the diluted ^3H3-17α-hydroxypregnenolone was added in each tube, i.e., 1 μCi/reaction. 4. Microsome Isolation Buffer: The microsome isolation buffer was prepared by combining 250 mM Sucrose, 5 mM EDTA, 10 mM Tris HCl, 4 mM DTT, and adjusting to pH 7.4. 5. TEG Buffer: The TEG buffer was prepared by combining 50 mM Tris HCl, 1 mM EDTA, and 20% Glycerol. 6. Rat Testicular Microsomes: Rat testis tissue was collected and disrupted with 30 strokes of a glass homogenizer on ice with 250 μL of microsome isolation buffer, followed by centrifugation at 10,000 g for 10 minutes at 4° C. The supernatant was collected and centrifuged at 100,000 g for 45 minutes at 4° C. The pellet was dissolved in TEG Buffer and the protein was quantified. The homogenized microsome samples were then frozen at −80° C. • 7. Yeast Microsomes which overexpress the human CYP17 enzyme were obtained from Premas Biotech, India.
Potassium phosphate buffer (470 μL) was prepared as described above and was added to each well of a deep well plate. The test compound was diluted using a TECAN liquid handler and 5 μL of diluted compound was transferred to each well (96 deep well/1 mL). A solution (25 μL) of 6.5 mM NADPH was added (final concentration of 325 μM in the assay). ^3H3-17α-hydroxypregnenolone (2 μL of the working stock) was added to each tube. The plates were then pre-incubated for 15 minutes at 37° C. Following the pre-incubation, either 5 μL rat testicular microsomes (150-160 μg) or 5 μL of yeast microsomes expressing human CYP17 (1.7 pmol), was added. Incubation was at 37° C. for 60 minutes in the presence of oxygen. The plates were then placed in ice and chloroform (500 μL) was added, mixed well and incubated at 4° C. for 20 minutes. The plates were then centrifuged at 1000 rpm for 15 minutes at 4° C.
A portion (300 μL) of the aqueous solution was collected and mixed with a 5% aqueous suspension of activated charcoal (300 μL). The plates were then incubated at 4° C. for 30 minutes, after which the plates were centrifuged at 1000 rpm for 15 minutes at 4° C. From this, 125 μL of the aqueous solution was collected and plated into a 96 well plate. Microscint™ 40 [125 μL, Perkin-Elmer; containing a mixture of a polymer based on alkylphenolethoxylate (20-40%), diethanolamine-phosphoric acid ester ammonium salt (10-20%), sodium dioctyl sulphosuccinate (2.5-10%), triethyl phosphate (2.5-10%), 3,6-dimethyl-4-octyne-3,6-diol (≦2.5%), a polymer based on nonylphenolethoxylate (≦2.5%), diisopropyl naphthalene isomers (40-60%), 2,5-diphenyloxazole (≦2.5%), and 9,10-dimethylanthracene] was added and mixed well. After 30 minutes of incubation, the samples were analyzed with a MicroBeta® Trilux microplate liquid scintillation counter and luminometer (Perkin-Elmer).

| Structure (SMILES) | IC50 [1] [nM] | IC50 (human CYP17) [nM] |
| --- | --- | --- |
| CC(O)(c1ccncc1)c1cnc(-c2ccc(F)cc2)s1 (single isomer, unassigned) [Example 8, 1-(2-(4-fluorophenyl)thiazol-5-yl)-1-(pyridin-4-yl)ethanol] | < 50 | 201 to 10000 |
| Cn1cc(-c2ccc(C(C)(O)c3ccncc3)s2)ccc1=O (single isomer, unassigned; (-)) [Example 17, (−)-5-(5-(1-hydroxy-1-(pyridin-4-yl)ethyl)thiophen-2-yl)-1-methylpyridin-2(1H)-one] | < 50 | 50 to 200 |
| CCC(O)(c1ccncc1)c1cnc(-c2ccc(F)cc2)s1 (stereo not shown) [Example 4, 1-(2-(4-fluorophenyl)-thiazol-5-yl)-1-(pyridin-4-yl)propan-1-ol] | < 50 | – |
| COc1ccc(-c2ccc(C(C)(O)c3ccncc3)nc2)cc1 (racemic) [Example 1, 1-(5-(4-Methoxyphenyl)pyridin-2-yl)-1-(pyridin-4-yl)ethanol] | < 50 | 201 to 10000 |
| COc1ccc(-c2ccc(C(C)(O)c3ccncc3)nc2)cc1 (single isomer, unassigned) [Example 2, 1-(5-(4-methoxyphenyl)-pyridin-2-yl)-1-(pyridin-4-yl)ethanol] | < 50 | – |
| CC(O)(c1ccncc1)c1cnc(-c2ccc(F)cc2)s1 (racemic) [Example 7, 1-(2-(4-Fluorophenyl)thiazol-5-yl)-1-(pyridin-4-yl)ethanol] | < 50 | 50 to 200 |
| COc1ccc(-c2ccc(C(C)(O)c3ccncc3)nc2)cc1 (single isomer, unassigned) [Example 3, 1-(5-(4-methoxyphenyl)-pyridin-2-yl)-1-(pyridin-4-yl)ethanol] | 50 to 200 | – |
| Cn1cc(-c2ccc(C(C)(O)c3ccncc3)s2)ccc1=O (stereo not shown) [Example 15, 5-(5-(1-Hydroxy-1-(pyridin-4-yl)ethyl)thiophen-2-yl)-1-methyl-pyridin-2(1H)-one] | < 50 | 201 to 10000 |
| CC(O)(c1ccncc1)c1ncc(-c2ccc(F)cc2)s1 (stereo not shown) [Example 14, 1-(5-(4-Fluorophenyl)thiazol-2-yl)-1-(pyridin-4-yl)ethanol] | < 50 | – |
| CC(O)(c1ccncc1)c1nc(-c2ccc(F)cc2)no1 (single isomer, unassigned; (+)) [Example 36, (+)-1-(3-(4-fluoro-phenyl)-1,2,4-oxadiazol-5-yl)-1-(pyridin-4-yl)ethanol] | < 50 | < 50 |
| CC(O)(c1ccncc1)c1cnc(-c2ccc(F)cc2)s1 (single isomer, unassigned) [Example 9, 1-(2-(4-fluorophenyl)thiazol-5-yl)-1-(pyridin-4-yl)ethanol] | < 50 | 50 to 200 |
| CC(O)(c1ccncc1)c1nc(-c2ccc(F)cc2)no1 (stereo not shown) [Example 34, 1-(3-(4-Fluorophenyl)-1,2,4-oxadiazol-5-yl)-1-(pyridin-4-yl)ethanol] | < 50 | – |
